Assay results reported in patent US8580965B2, “Substituted sulfonamide compounds” (Gruenenthal GmbH, priority 2006, dated 2013).

Assays:
[1] = molecular target: T1, human B1R receptor (bradykinin 1 receptor) (Homo sapiens, UniProt P46663); assay: FLIPR Ca2+ assay (Fluo-4) on CHO K1 cells stably transfected with the human B1R gene; % activation and % inhibition at 10 μM; assay type: cell-based; details: CHO-K1, test substance 10 μM; CHO K1 hB1R cells; Ca2+ inflow after 0.5 nM Lys-Des-Arg9-bradykinin; read-out: B1R antagonism, human [10 μM] % inhibition
T1 construct: host or cells: CHO K1 cells (hB1R cells)
T1 sequence (P46663 1-353): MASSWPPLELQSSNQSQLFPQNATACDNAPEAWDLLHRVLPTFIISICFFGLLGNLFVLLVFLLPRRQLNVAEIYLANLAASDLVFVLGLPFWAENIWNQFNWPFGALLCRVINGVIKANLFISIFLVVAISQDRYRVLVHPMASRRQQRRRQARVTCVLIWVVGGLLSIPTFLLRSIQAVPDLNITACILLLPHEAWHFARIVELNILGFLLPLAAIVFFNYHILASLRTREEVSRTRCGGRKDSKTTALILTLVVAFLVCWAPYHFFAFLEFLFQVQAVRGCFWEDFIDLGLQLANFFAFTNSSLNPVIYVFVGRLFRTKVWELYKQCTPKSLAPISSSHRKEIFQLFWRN
How it was run: (§1)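 Fluo-4 Ca2+ flux on FLIPR in stable hB1R or rB1R CHO K1 lines, two additions. Agonism: 10 µM compound versus 0.5 nM Lys-Des-Arg9-BK (human) or 100 nM Des-Arg9-BK (rat); antagonism: same agonists applied 10 min later, suppression expressed against maximum achievable inhibition.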

[2] = molecular target: T2, B1R receptor of the rat (bradykinin 1 receptor) (Rattus norvegicus, UniProt P97583); assay: FLIPR Ca2+ assay (Fluo-4) on CHO K1 cells stably transfected with the B1R gene of the rat; % activation and % inhibition at 10 μM; assay type: cell-based; details: CHO-K1, test substance 10 μM; CHO K1 rB1R cells; Ca2+ inflow after 100 nM Des-Arg9-bradykinin; read-out: B1R antagonism, rat [10 μM] % inhibition
T2 construct: host or cells: CHO K1 cells (rB1R cells)
T2 sequence (P97583 1-337): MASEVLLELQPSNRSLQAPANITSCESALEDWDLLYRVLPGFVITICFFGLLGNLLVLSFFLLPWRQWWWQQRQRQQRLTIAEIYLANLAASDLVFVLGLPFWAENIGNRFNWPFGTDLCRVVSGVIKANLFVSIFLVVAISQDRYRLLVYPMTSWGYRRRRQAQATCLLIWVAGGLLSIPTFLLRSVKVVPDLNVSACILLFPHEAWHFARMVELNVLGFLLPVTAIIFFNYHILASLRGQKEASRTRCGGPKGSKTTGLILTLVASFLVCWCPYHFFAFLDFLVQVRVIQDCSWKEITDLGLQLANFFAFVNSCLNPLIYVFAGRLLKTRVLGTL
How it was run: as §1

| Structure (SMILES) | inhibition at 10 µM [1] [%] | inhibition at 10 µM [2] [%] |
| --- | --- | --- |
| Cc1cc(S(=O)(=O)N(C)CCOCC(=O)N2CCC(O)(c3ccccc3)CC2)c(C)cc1Cl [Example 152, 4-chloro-N-(2-(2-(4-hydroxy-4-phenylpiperidin-1-yl)-2-oxoethoxy)ethyl)-N,2,5-trimethylphenylsulfonamide] | 81.6 | 77.2 |
| Cc1cc(S(=O)(=O)N(C)CCOCC(=O)N2CCC(O)(Cc3ccccc3)CC2)c(C)cc1Cl [Example 153, N-(2-(2-(4-benzyl-4-hydroxypiperidin-1-yl)-2-oxoethoxy)ethyl)-4-chloro-N,2,5-trimethylphenylsulfonamide] | 71.8 | 69.1 |
| Cc1cc(S(=O)(=O)N(C)CCOCC(=O)N2CCC(O)(c3cccc(C(F)(F)F)c3)CC2)c(C)cc1Cl [Example 154, 4-chloro-N-(2-(2-(4-hydroxy-4-(3-(trifluoromethyl)phenyl)piperidin-1-yl)-2-oxoethoxy)ethyl)-N,2,5-trimethylphenylsulfonamide] | 98.8 | 96.4 |
| O=C(COCC1CCCCN1S(=O)(=O)c1ccc(C(F)(F)F)cc1)N1CCC(O)(c2cccnc2)CC1 (centres unmarked) [Example 155, 1-(4-hydroxy-4-(pyridin-3-yl)piperidin-1-yl)-2-((1-(4-(trifluoromethyl)phenylsulfonyl)piperidin-2-yl)methoxy)ethanone] | 30.3 | 60.3 |
| O=C(COCC1CCCCN1S(=O)(=O)c1ccc(C(F)(F)F)cc1)N1CCC(O)(c2ccc(Cl)cc2)CC1 (centres unmarked) [Example 156, 1-(4-(4-chlorophenyl)-4-hydroxypiperidin-1-yl)-2-((1-(4-(trifluoromethyl)phenylsulfonyl)piperidin-2-yl)methoxy)ethanone] | 20.9 | 70.3 |
| Cc1cc(S(=O)(=O)N2CCCCC2COCC(=O)N2CCC(O)(c3cccnc3)CC2)c(C)cc1Cl (centres unmarked) [Example 157, 2-((1-(4-chloro-2,5-dimethylphenylsulfonyl)piperidin-2-yl)methoxy)-1-(4-hydroxy-4-(pyridin-3-yl)piperidin-1-yl)ethanone] | 77.1 | 101 |
| Cc1cc(S(=O)(=O)N2CCCCC2COCC(=O)N2CCC(O)(c3ccccc3)CC2)c(C)cc1Cl (centres unmarked) [Example 158, 2-((1-(4-chloro-2,5-dimethylphenylsulfonyl)piperidin-2-yl)methoxy)-1-(4-hydroxy-4-phenylpiperidin-1-yl)ethanone] | 44.9 | 105 |
| Cc1cc(S(=O)(=O)N2CCCCC2COCC(=O)N2CCC(O)(Cc3ccccc3)CC2)c(C)cc1Cl (centres unmarked) [Example 159, 1-(4-benzyl-4-hydroxypiperidin-1-yl)-2-((1-(4-chloro-2,5-dimethylphenylsulfonyl)piperidin-2-yl)methoxy)ethanone] | 38.5 | 97 |
| Cc1ccc(S(=O)(=O)N2CCCCC2COCC(=O)N2CCC(O)(c3cccnc3)CC2)cc1Cl (centres unmarked) [Example 161, 2-((1-(3-chloro-4-methylphenylsulfonyl)piperidin-2-yl)methoxy)-1-(4-hydroxy-4-(pyridin-3-yl)piperidin-1-yl)ethanone] | 78.5 | 80.8 |

Further lines, results first:

| inhibition at 10 µM [1] [%] | inhibition at 10 µM [2] [%] | Structure (SMILES) |
| --- | --- | --- |
| 24.6 | 105 | O=C(COCC1CCCCN1S(=O)(=O)c1c(Cl)cc(C(F)(F)F)cc1Cl)N1CCC(O)(c2ccccc2)CC1 (centres unmarked) [Example 162, 2-((1-(2,6-dichloro-4-(trifluoromethyl)phenylsulfonyl)piperidin-2-yl)methoxy)-1-(4-hydroxy-4-phenylpiperidin-1-yl)ethanone] |
| 46.1 | 101 | O=C(COCC1CCCCN1S(=O)(=O)c1c(Cl)cc(C(F)(F)F)cc1Cl)N1CCC(O)(Cc2ccccc2)CC1 (centres unmarked) [Example 163, 1-(4-benzyl-4-hydroxypiperidin-1-yl)-2-((1-(2,6-dichloro-4-(trifluoromethyl)phenylsulfonyl)piperidin-2-yl)methoxy)ethanone] |
| 36.4 | 103 | O=C(COCC1CCCCN1S(=O)(=O)c1c(Cl)cc(C(F)(F)F)cc1Cl)N1CCC(O)(c2cccc(C(F)(F)F)c2)CC1 (centres unmarked) [Example 164, 2-((1-(2,6-dichloro-4-(trifluoromethyl)phenylsulfonyl)piperidin-2-yl)methoxy)-1-(4-hydroxy-4-(3-(trifluoromethyl)phenyl)piperidin-1-yl)ethanone] |
| 2.63 | 104 | O=C(COCC1CCCCN1S(=O)(=O)c1c(Cl)cc(C(F)(F)F)cc1Cl)N1CCC(O)(c2ccc(Cl)c(C(F)(F)F)c2)CC1 (centres unmarked) [Example 165, 1-(4-(4-chloro-3-(trifluoromethyl)phenyl)-4-hydroxypiperidin-1-yl)-2-((1-(2,6-dichloro-4-(trifluoromethyl)phenylsulfonyl)piperidin-2-yl)methoxy)ethanone] |
| 58.5 | 104 | O=C(COCC1CCCN1S(=O)(=O)c1c(Cl)cc(C(F)(F)F)cc1Cl)N1CCC(O)(c2ccc(Cl)cc2)CC1 (centres unmarked) [Example 166, 1-(4-(4-chlorophenyl)-4-hydroxypiperidin-1-yl)-2-((1-(2,6-dichloro-4-(trifluoromethyl)phenylsulfonyl)pyrrolidin-2-yl)methoxy)ethanone] |
| 41.5 | 104 | O=C(COCC1CCCN1S(=O)(=O)c1c(Cl)cc(C(F)(F)F)cc1Cl)N1CCC(O)(c2ccc(Br)cc2)CC1 (centres unmarked) [Example 167, 1-(4-(4-bromophenyl)-4-hydroxypiperidin-1-yl)-2-((1-(2,6-dichloro-4-(trifluoromethyl)phenylsulfonyl)pyrrolidin-2-yl)methoxy)ethanone] |
| 33.1 | 104 | O=C(COCC1CCCN1S(=O)(=O)c1c(Cl)cc(C(F)(F)F)cc1Cl)N1CCC(O)(c2ccccc2)CC1 (centres unmarked) [Example 168, 2-((1-(2,6-dichloro-4-(trifluoromethyl)phenylsulfonyl)pyrrolidin-2-yl)methoxy)-1-(4-hydroxy-4-phenylpiperidin-1-yl)ethanone] |
| 14.6 | 79.4 | O=C(COCC1CCCN1S(=O)(=O)c1c(Cl)cc(C(F)(F)F)cc1Cl)N1CCC(O)(Cc2ccccc2)CC1 (centres unmarked) [Example 169, 1-(4-benzyl-4-hydroxypiperidin-1-yl)-2-((1-(2,6-dichloro-4-(trifluoromethyl)phenylsulfonyl)pyrrolidin-2-yl)methoxy)ethanone] |
| 25.7 | 103 | O=C(COCC1CCCN1S(=O)(=O)c1c(Cl)cc(C(F)(F)F)cc1Cl)N1CCC(O)(c2cccc(C(F)(F)F)c2)CC1 (centres unmarked) [Example 170, 2-((1-(2,6-dichloro-4-(trifluoromethyl)phenylsulfonyl)pyrrolidin-2-yl)methoxy)-1-(4-hydroxy-4-(3-(trifluoromethyl)phenyl)piperidin-1-yl)ethanone] |
| 0.56 | 104 | O=C(COCC1CCCN1S(=O)(=O)c1c(Cl)cc(C(F)(F)F)cc1Cl)N1CCC(O)(c2ccc(Cl)c(C(F)(F)F)c2)CC1 (centres unmarked) [Example 171, 1-(4-(4-chloro-3-(trifluoromethyl)phenyl)-4-hydroxypiperidin-1-yl)-2-((1-(2,6-dichloro-4-(trifluoromethyl)phenylsulfonyl)pyrrolidin-2-yl)methoxy)ethanone] |
| 103 | 105 | O=C(COCC1CCCCN1S(=O)(=O)c1ccccc1C(F)(F)F)N1CCC(O)(c2cccnc2)CC1 (centres unmarked) [Example 172, 1-(4-hydroxy-4-(pyridin-3-yl)piperidin-1-yl)-2-((1-(2-(trifluoromethyl)phenylsulfonyl)piperidin-2-yl)methoxy)ethanone] |
| 103 | 104 | O=C(COCC1CCCCN1S(=O)(=O)c1ccccc1C(F)(F)F)N1CCC(O)(c2ccc(Cl)cc2)CC1 (centres unmarked) [Example 173, 1-(4-(4-chlorophenyl)-4-hydroxypiperidin-1-yl)-2-((1-(2-(trifluoromethyl)phenylsulfonyl)piperidin-2-yl)methoxy)ethanone] |
| 102 | 105 | O=C(COCC1CCCCN1S(=O)(=O)c1ccccc1C(F)(F)F)N1CCC(O)(c2ccc(Br)cc2)CC1 (centres unmarked) [Example 174, 1-(4-(4-bromophenyl)-4-hydroxypiperidin-1-yl)-2-((1-(2-(trifluoromethyl)phenylsulfonyl)piperidin-2-yl)methoxy)ethanone] |
